The subject of one experiment is Escherichia coli. Description: Antimicrobial activity against Escherichia coli by broth microdilution method. The format is functional.
Experiment [1] is described as follows: Inhibition of Staphylococcus aureus type I signal peptidase SpsB-mediated processing of internally quenched fluorescent synthetic peptide substrate.
In experiment [2] the test system is Staphylococcus aureus. Description: Antimicrobial activity against Staphylococcus aureus by broth microdilution method. The format is functional.
The subject of experiment [3] is Staphylococcus aureus. The experiment can be described thus: Inhibition of Staphylococcus aureus type I signal peptidase SpsB-mediated processing of internally quenched fluorescent synthetic peptide substrate at 200 uM.
The subject of experiment [4] is Staphylococcus epidermidis. The experiment can be described thus: Antimicrobial activity against Staphylococcus epidermidis by broth microdilution method. It is filed as functional.
Experiment [5] deals with Signal peptidase I (Escherichia coli K-12) (UniProt P00803). Description: (§1) Inhibition of Escherichia coli type I signal peptidase lepB.
In the next experiment the target is Signal peptidase I (Escherichia coli K-12, UniProt P00803). The experiment is described as §1.

SMILES strings stand for the structures. ≈ marks a conversion by molar mass, not a printed value. Calls of active or inactive are those of the source. No cut-off for these calls is given here. Residues, ends and D or L forms follow the SMILES beside them. *: point of attachment. Decanoyl = CCCCCCCCCC(=O)*

Chain of Signal peptidase I (Escherichia coli K-12) (P00803 whole entry): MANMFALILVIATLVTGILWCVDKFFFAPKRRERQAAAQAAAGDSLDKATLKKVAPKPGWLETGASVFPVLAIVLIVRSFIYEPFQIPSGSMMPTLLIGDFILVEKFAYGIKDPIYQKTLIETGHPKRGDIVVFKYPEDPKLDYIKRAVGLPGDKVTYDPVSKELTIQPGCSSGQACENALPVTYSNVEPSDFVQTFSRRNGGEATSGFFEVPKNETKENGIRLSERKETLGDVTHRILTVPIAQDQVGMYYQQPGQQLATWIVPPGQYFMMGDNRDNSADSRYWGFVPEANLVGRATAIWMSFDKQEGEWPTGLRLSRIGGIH
Chain of Signal peptidase I (P00803 whole entry): as above

Regarding `CCCCCCCCCC(=O)N[C@@H](CC(C)C)C(=O)N[C@H](C(=O)N1CCC[C@H]1C(=O)N[C@H](C(=O)N[C@@H](C)C(=O)N[C@@H](CCCCN)C(=O)N[C@@H](C)C(=O)N1CCC[C@H]1C(=O)N[C@@H](CO)C(=O)N[C@@H](CCCCN)C(=O)N[C@H](C(=O)N[C@@H](CC(=O)O)C(=O)N[C@@H](CC(=O)O)C(=O)O)[C@@H](C)CC)[C@@H](C)O)[C@@H](C)O` (Decanoyl-LTPTAKAPSKIDD-OH), the result (in the experiment on Escherichia coli; with Staphylococcus aureus [2]; in experiment [4]; in experiment [5]) was inactive. The compound further showed a 50% inhibitory concentration (IC50) in experiment [1] of 0.8 µM. Besides, the inhibition in the experiment with Staphylococcus aureus [3] turned out to be 107%.
Take `CCCCCCCCCC(=O)N[C@@H](CC(C)C)C(=O)N[C@H](C(=O)N1CCC[C@H]1C(=O)N[C@H](C(=O)N[C@@H](C)C(=O)N[C@@H](CCCCN)C(=O)N[C@@H](C)C(=O)N1CCC[C@H]1C(=O)N[C@@H](CO)C(=O)N[C@@H](CCCCN)C(=O)N[C@H](C(=O)O)[C@@H](C)CC)[C@@H](C)O)[C@@H](C)O` (Decanoyl-LTPTAKAPSKI-OH): half-maximal inhibition in experiment [1] (IC50) required 2.6 µM. Besides, the inhibition in the experiment on Staphylococcus aureus [3] is 107%. Further, the outcome in experiment [5] was inactive.
The matching figures for `CCCCCCCCCC(=O)N1CCC[C@H]1C(=O)N[C@H](C(=O)N[C@@H](C)C(=O)N[C@@H](CCCCN)C(=O)N[C@@H](C)C(=O)N1CCC[C@H]1C(=O)N[C@@H](CO)C(=O)N[C@@H](CCCCN)C(=O)N[C@H](C(=O)N[C@@H](CC(=O)O)C(=O)N[C@@H](CC(=O)O)C(=O)O)[C@@H](C)CC)[C@@H](C)O` (Decanoyl-PTAKAPSKIDD-OH): 3.2 µM, 106% and “inactive”.
For `CC[C@H](C)[C@H](NC(=O)[C@H](CCCCN)NC(=O)[C@H](CO)NC(=O)[C@@H]1CCCN1C(=O)[C@H](C)NC(=O)[C@H](CCCCN)NC(=O)[C@H](C)NC(=O)[C@@H](NC(=O)[C@@H]1CCCN1C(=O)[C@@H](NC(=O)[C@@H](N)CC(C)C)[C@@H](C)O)[C@@H](C)O)C(=O)N[C@@H](CC(=O)O)C(=O)N[C@@H](CC(=O)O)C(=O)O` (H-LTPTAKAPSKIDD-OH), in that order: more than 200 µM, 21.6% and “inactive”.
For `CCCCCCCCCC(=O)N[C@@H](C)C(=O)N[C@@H](CCCCN)C(=O)N[C@@H](C)C(=O)N1CCC[C@H]1C(=O)N[C@@H](CO)C(=O)N[C@@H](CCCCN)C(=O)N[C@H](C(=O)N[C@@H](CC(=O)O)C(=O)N[C@@H](CC(=O)O)C(=O)O)[C@@H](C)CC` (Decanoyl-AKAPSKIDD-OH), in that order: more than 200 µM, 0% and “inactive”.
Compound `CCCCCCCCCC(=O)N[C@@H](CC(C)C)C(=O)N[C@H](C(=O)N1CCC[C@H]1C(=O)N[C@H](C(=O)N[C@@H](C)C(=O)N[C@@H](CCCCN)C(=O)N[C@@H](C)C(=O)N1CCC[C@H]1C(=O)N[C@@H](CO)C(=O)N[C@@H](CCCCN)C(=O)N[C@H](C(=O)N[C@@H](CC(=O)O)C(=O)O)[C@@H](C)CC)[C@@H](C)O)[C@@H](C)O` (Decanoyl-LTPTAKAPSKID-OH) yielded an IC50 in experiment [1] of 5 µM. For the same compound, the inhibition with Staphylococcus aureus [3] amounted to 108%. In experiment [5], the result was inactive.
With `CCCCCCCCCC(=O)N1CCC[C@H]1C(=O)N[C@H](C(=O)N[C@@H](C)C(=O)N[C@@H](CC(N)=O)C(=O)N[C@@H](C)C=O)[C@@H](C)O` (Decanoyl-PTANA-aldehyde), the MIC is more than 500 µg/mL against Escherichia coli, 125 µg/mL (≈ 205 µM) in the experiment on Staphylococcus aureus [2] and 500 µg/mL (≈ 819 µM) in experiment [4]. Also, the half-maximal inhibitory concentration (IC50) in experiment [1] came out at 0.09 µM; at Signal peptidase I it was 13.4 µM.
Compound `CCCCCCCCCC(=O)N[C@H](C(=O)N1CCC[C@H]1C(=O)N[C@H](C(=O)N[C@@H](C)C(=O)N[C@@H](CCCCN)C(=O)N[C@@H](C)C(=O)N1CCC[C@H]1C(=O)N[C@@H](CO)C(=O)N[C@@H](CCCCN)C(=O)N[C@H](C(=O)N[C@@H](CC(=O)O)C(=O)N[C@@H](CC(=O)O)C(=O)O)[C@@H](C)CC)[C@@H](C)O)[C@@H](C)O` (Decanoyl-TPTAKAPSKIDD-OH) registered an IC50 in experiment [1] of 4.8 µM. The inhibition in the experiment with Staphylococcus aureus [3] came to 106%. For the same compound, in experiment [5], the result was inactive.
As for `CCCCCCCCCC(=O)N[C@H](C(=O)N[C@@H](C)C(=O)N[C@@H](CCCCN)C(=O)N[C@@H](C)C(=O)N1CCC[C@H]1C(=O)N[C@@H](CO)C(=O)N[C@@H](CCCCN)C(=O)N[C@H](C(=O)N[C@@H](CC(=O)O)C(=O)N[C@@H](CC(=O)O)C(=O)O)[C@@H](C)CC)[C@@H](C)O` (Decanoyl-TAKAPSKIDD-OH), the IC50 in experiment [1] worked out at 30.8 µM. Further, in the experiment with Staphylococcus aureus [3], the inhibition was determined as 98%. Besides, the result in experiment [5] was inactive.
The matching figures for `CCCCCCCCCC(=O)N[C@@H](CC(C)C)C(=O)N[C@H](C(=O)N1CCC[C@H]1C(=O)N[C@H](C(=O)N[C@@H](C)C(=O)N[C@@H](CCCCN)C(=O)N[C@@H](C)C(=O)N1CCC[C@H]1C(=O)N[C@@H](CO)C(=O)O)[C@@H](C)O)[C@@H](C)O` (Decanoyl-LTPTAKAPS-OH): 22.5 µM, 92.9% and “inactive”.
The matching figures for `CCCCCCCCCC(=O)N[C@@H](CC(C)C)C(=O)N[C@H](C(=O)N1CCC[C@H]1C(=O)N[C@H](C(=O)N[C@@H](C)C(=O)N[C@@H](CCCCN)C(=O)N[C@@H](C)C(=O)N1CCC[C@H]1C(=O)N[C@@H](CO)C(=O)N[C@@H](CCCCN)C(=O)O)[C@@H](C)O)[C@@H](C)O` (Decanoyl-LTPTAKAPSK-OH): 1 µM, 108% and “inactive”.

The values are drawn from ChEMBL document CHEMBL1151864, “Substrate based peptide aldehyde inhibits bacterial type I signal peptidase” (Bioorg Med Chem Lett, 2009).
